Experimental data as given in the NIST ThermoML archive (doi:10.1016/j.jct.2016.09.007).

Assay: xn = mol fraction of the nth substance listed
Conditions: 93.2 kPa, Liquid; for speed of sound: Frequency=3 MHz, Sing-around technique in a fixed-path interferometer; for mass density: Vibrating tube method

CCCC(=O)[O-].CCCC[NH3+] [n-butylammonium butanoate] + CCCO
Conditions | mass density, 293.15 K [kg/m3] | mass density, 298.15 K [kg/m3] | mass density, 303.15 K [kg/m3] | mass density, 308.15 K [kg/m3] | mass density, 313.15 K [kg/m3] | speed of sound, 293.15 K [m/s] | speed of sound, 298.15 K [m/s] | speed of sound, 303.15 K [m/s] | speed of sound, 308.15 K [m/s] | speed of sound, 313.15 K [m/s]
x1 = 0.0507 | 820.248 | 816.288 | 812.295 | 808.263 | 804.187 | 1245.5 | 1228.1 | 1210.8 | 1193.6 | 1176.7
x1 = 0.1012 | 834.054 | 830.162 | 826.227 | 822.265 | 818.288 | 1264 | 1246.6 | 1229.4 | 1212.2 | 1195.2
x1 = 0.1518 | 845.668 | 841.844 | 837.991 | 834.106 | 830.181 | 1280 | 1262.6 | 1245.3 | 1228.2 | 1211.2
x1 = 0.202 | 855.786 | 852.003 | 848.218 | 844.396 | 840.532 | 1294.2 | 1276.9 | 1259.7 | 1242.6 | 1225.6
x1 = 0.2517 | 864.424 | 860.713 | 856.978 | 853.215 | 849.411 | 1306.7 | 1289.3 | 1272.1 | 1255 | 1238.2
x1 = 0.3003 | 871.964 | 868.301 | 864.616 | 860.902 | 857.161 | 1317.9 | 1300.6 | 1283.4 | 1266.4 | 1249.5
x1 = 0.3334 | 876.626 | 872.985 | 869.329 | 865.652 | 861.938 | 1325 | 1307.7 | 1290.6 | 1273.6 | 1256.7
x1 = 0.401 | 885.2 | 881.621 | 878.022 | 874.402 | 870.759 | 1338.2 | 1321 | 1303.9 | 1286.9 | 1270.2
x1 = 0.4478 | 890.446 | 886.895 | 883.335 | 879.756 | 876.162 | 1346.9 | 1329.7 | 1312.6 | 1295.7 | 1279
x1 = 0.5001 | 895.864 | 892.351 | 888.828 | 885.287 | 881.725 | 1355.5 | 1338.3 | 1321.2 | 1304.4 | 1287.8
x1 = 0.5465 | 900.176 | 896.692 | 893.2 | 889.694 | 886.168 | 1362.8 | 1345.6 | 1328.5 | 1311.7 | 1295.1
x1 = 0.5992 | 904.688 | 901.241 | 897.78 | 894.304 | 890.806 | 1370.7 | 1353.4 | 1336.4 | 1319.6 | 1303
x1 = 0.6495 | 908.619 | 905.208 | 901.781 | 898.337 | 894.874 | 1377.9 | 1360.5 | 1343.5 | 1326.6 | 1310.1
x1 = 0.6928 | 911.76 | 908.377 | 904.977 | 901.561 | 898.121 | 1384 | 1366.5 | 1349.4 | 1332.5 | 1316
x1 = 0.7484 | 915.581 | 912.23 | 908.868 | 905.487 | 902.083 | 1392 | 1374.2 | 1356.9 | 1340 | 1323.4
x1 = 0.7906 | 918.267 | 914.932 | 911.595 | 908.238 | 904.859 | 1398.1 | 1380.1 | 1362.6 | 1345.6 | 1328.9
x1 = 0.8695 | 922.883 | 919.552 | 916.236 | 912.916 | 909.578 | 1409.8 | 1391.2 | 1373.3 | 1355.9 | 1339
x1 = 0.9443 | 926.755 | 923.441 | 920.127 | 916.826 | 913.524 | 1420 | 1400.6 | 1382 | 1364.2 | 1347
x1 = 1 | 928.794 | 925.509 | 922.217 | 918.88 | 915.567 | 1431.5 | 1410.3 | 1390.4 | 1371.5 | 1353.6
